In publication PMC5814057, “Folic acid derived-P5779 mimetics regulate DAMP-mediated inflammation through disruption of HMGB1:TLR4:MD-2 axes” (PLoS ONE, 2018):

How the values were obtained:
[1] = target: T1, MD-2 (Homo sapiens, UniProt Q9Y6Y9); assay: SPR direct binding to immobilized MD-2 (Biacore T200); details: MD-2 immobilized on CM5 chip
T1 construct: purchased R&D Systems 1787-MD
T1 sequence (Q9Y6Y9 19-160): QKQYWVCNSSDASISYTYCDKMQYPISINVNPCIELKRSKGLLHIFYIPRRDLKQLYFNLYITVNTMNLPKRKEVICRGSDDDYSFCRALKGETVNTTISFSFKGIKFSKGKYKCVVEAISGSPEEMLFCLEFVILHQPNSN
Experimental: (§1) Biacore T200 (GE Healthcare, USA) was used for real-time binding interaction studies. […] For binding analyses, CM5 series chips (GE Healthcare) were activated and the reference flow-cell was blocked by 1 M ethanolamine (pH = 8.5). The ligand protein MD-2 dilution (10 ug/mL in 10 mM Acetate buffer pH 5) or HMGB1 (20 ug/mL in 10 mM acetate buffer pH = 4.5) or TLR4/MD2 complex (10 ug/mL in 10 mM acetate buffer pH 4.5) were subjected to the sample flow-cell at the flow rate of 10 uL/min until the surface Plasmon resonance reached 1000–2000 RU. Analytes (Folic acid analogues) diluted into 5 different concentrations were sequentially injected at a flow rate of 30uL/min for 60s or 120s (TLR4/MD-2). The dissociation time was set for 1 minute or 2 minutes (TLR4/MD-2). The equilibrium dissociation constant (KD) was obtained to evaluate the binding affinity by using the BIAEvaluation 2.0 software (GE Healthcare) supposing a 1:1 binding ratio. At least 3 independent experiments were performed.

[2] = test system: HMGB1; assay: SPR direct binding to immobilized HMGB1
Experimental: as §1

[3] = Stability of compound noted for the SPR experiment; format: physicochemical; details: excluded from the SPR experiment
[4] = target: T2, TLR4/MD-2 complex (Homo sapiens, UniProt O00206+Q9Y6Y9); assay: SPR direct binding to immobilized TLR4/MD-2 complex; details: TLR4/MD-2 complex immobilized
T2 construct: purchased R&D Systems 3146-TM-050
Experimental: Biacore T200 (GE Healthcare, USA) was used for real-time binding interaction studies. Recombinant human TLR4/MD2 (R&D 3146-TM-050) complex protein and MD2 (R&D 1787-MD) protein were purchased from R&D Systems (Minneapolis, USA). For binding analyses, CM5 series chips (GE Healthcare) were activated and the reference flow-cell was blocked by 1 M ethanolamine (pH = 8.5). The ligand protein MD-2 dilution (10 ug/mL in 10 mM Acetate buffer pH 5) or HMGB1 (20 ug/mL in 10 mM acetate buffer pH = 4.5) or TLR4/MD2 complex (10 ug/mL in 10 mM acetate buffer pH 4.5) were subjected to the sample flow-cell at the flow rate of 10 uL/min until the surface Plasmon resonance reached 1000–2000 RU. Analytes (Folic acid analogues) diluted into 5 different concentrations were sequentially injected at a flow rate of 30uL/min for 60s or 120s (TLR4/MD-2). The dissociation time was set for 1 minute or 2 minutes (TLR4/MD-2). The equilibrium dissociation constant (KD) was obtained to evaluate the binding affinity by using the BIAEvaluation 2.0 software (GE Healthcare) supposing a 1:1 binding ratio. At least 3 independent experiments were performed.

T2 sequence (O00206 24-631 limits assumed): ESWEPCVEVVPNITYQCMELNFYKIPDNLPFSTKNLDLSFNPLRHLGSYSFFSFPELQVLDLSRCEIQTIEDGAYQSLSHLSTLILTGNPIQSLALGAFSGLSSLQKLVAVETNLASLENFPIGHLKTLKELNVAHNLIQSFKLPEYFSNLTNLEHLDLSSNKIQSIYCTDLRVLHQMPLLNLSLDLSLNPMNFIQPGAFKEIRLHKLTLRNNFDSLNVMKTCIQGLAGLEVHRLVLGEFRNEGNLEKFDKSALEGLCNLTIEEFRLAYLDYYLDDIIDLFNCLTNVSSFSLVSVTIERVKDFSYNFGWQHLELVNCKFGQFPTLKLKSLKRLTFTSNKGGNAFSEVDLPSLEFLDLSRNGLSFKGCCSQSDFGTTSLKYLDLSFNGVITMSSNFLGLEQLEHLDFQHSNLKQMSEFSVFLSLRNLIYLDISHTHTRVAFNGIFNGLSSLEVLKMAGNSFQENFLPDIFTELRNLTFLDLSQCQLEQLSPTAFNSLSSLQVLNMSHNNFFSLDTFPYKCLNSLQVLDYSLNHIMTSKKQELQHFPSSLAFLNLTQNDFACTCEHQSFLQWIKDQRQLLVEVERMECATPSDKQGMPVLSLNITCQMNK
T2 sequence (Q9Y6Y9 17-160 limits assumed): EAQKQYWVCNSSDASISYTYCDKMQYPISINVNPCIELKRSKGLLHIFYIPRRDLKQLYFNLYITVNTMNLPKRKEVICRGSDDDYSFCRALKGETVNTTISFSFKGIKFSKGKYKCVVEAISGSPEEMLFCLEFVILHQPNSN

In the case of Nc1nc2c(c(=O)[nH]1)N(C=O)C(CNc1ccc(C(=O)N[C@@H](CCC(=O)O)C(=O)O)cc1)CN2 (stereo partly drawn) [Leucovorin, leucovorin], the Kd ([1]; 1:1 binding) is reported as 15000 nM.

In the case of Nc1nc(N)c2nc(CNc3ccc(C(=O)N[C@@H](CCC(=O)O)C(=O)O)cc3)cnc2n1 [Aminopterin, aminopterin], the Kd [1] is reported as 301 nM.

For CN(Cc1cnc2nc(N)nc(N)c2n1)c1ccc(C(=O)N[C@@H](CCC(=O)O)C(=O)O)cc1 [Methotrexate, methotrexate], the Kd [1] was 214 nM and the “binding to HMGB1” value [2] was “no binding”.

In the case of Nc1nc(=O)c2c([nH]1)NCC(CNc1ccc(C(=O)NC(CCC(=O)O)C(=O)O)cc1)N2 (stereo not drawn) [Tetrahydrofolic acid, tetrahydrofolic acid], the stability [3] is reported as “decomposition over time”.

For Nc1nc(=O)c2nc(CNc3ccc(C(=O)N[C@@H](CCC(=O)O)C(=O)O)cc3)cnc2[nH]1 [Folic acid, folic acid], the “binding to MD-2 (in words)” value [1] was “moderate binding”, the Kd ([1]; 1:1 binding) was 2390 nM and the Kd [4] was 537 nM.

For C#CCC(Cc1cnc2nc(N)nc(N)c2n1)c1ccc(C(=O)N[C@@H](CCC(=O)O)C(=O)O)cc1 (stereo partly drawn) [Pralatrexate, pralatrexate], the Kd ([1]; 1:1 binding) was 1870 nM.
